Experimental data as given in PubChem BioAssay (NCI).
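Cells were grown in 96-well plates and exposed to each compound for 48 hours at five concentrations; endpoints were interpolated linearly between bracketing concentrations, or set to the highest concentration if not reached. TGI: total growth inhibition.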 Where a SMILES comes first, the peptide text is derived from it. [ ]: non-standard residue; d: D form.

Tests used:
Experiment in all cases: NCI-60 cell line screen, 48 h
[1] = tested on: T-47D breast
[2] = tested on: COLO 205 colon
[3] = tested on: NCI-H226 lung
[4] = tested on: HT29 colon
[5] = tested on: IGROV1 ovarian
[6] = tested on: HL-60(TB) leukemia
[7] = tested on: HCT-15 colon
[8] = tested on: NCI-H460 lung
[9] = tested on: RXF 393 renal
[10] = tested on: OVCAR-5 ovarian
[11] = tested on: HCT-116 colon
[12] = tested on: CCRF-CEM leukemia
[13] = tested on: UACC-62 melanoma
[14] = tested on: SN12C renal
[15] = tested on: MOLT-4 leukemia
[16] = tested on: K-562 leukemia
[17] = tested on: HCC-2998 colon
[18] = tested on: 786-0 renal
[19] = tested on: RPMI-8226 leukemia
[20] = tested on: SK-OV-3 ovarian
[21] = tested on: SK-MEL-5 melanoma
[22] = tested on: SF-295 CNS
[23] = tested on: SNB-19 CNS
[24] = tested on: UO-31 renal
[25] = tested on: NCI-H522 lung
[26] = tested on: SF-268 CNS
[27] = tested on: M14 melanoma
[28] = tested on: OVCAR-3 ovarian
[29] = tested on: KM12 colon
[30] = tested on: CAKI-1 renal
[31] = tested on: HS 578T breast
[32] = tested on: TK-10 renal
[33] = tested on: HOP-62 NSCLC
[34] = tested on: EKVX NSCLC
[35] = tested on: SK-MEL-2 melanoma
[36] = tested on: OVCAR-8 ovarian
[37] = tested on: MDA-MB-231 breast
[38] = tested on: OVCAR-4 ovarian
[39] = tested on: A498 renal
[40] = tested on: NCI-H23 lung
[41] = tested on: LOX IMVI melanoma
[42] = tested on: SR leukemia
[43] = tested on: SF-539 CNS
[44] = tested on: SW-620 colon
[45] = tested on: ACHN renal
[46] = tested on: PC-3 prostate
[47] = tested on: HOP-92 NSCLC
[48] = tested on: NCI/ADR-RES ovarian
[49] = tested on: U251 CNS
[50] = tested on: UACC-257 melanoma
[51] = tested on: BT-549 breast
[52] = tested on: A549 NSCLC
[53] = tested on: MCF7 breast
[54] = tested on: DU-145 prostate
[55] = tested on: MDA-MB-435
[56] = tested on: SK-MEL-28 melanoma
[57] = tested on: SNB-75 CNS

Compound `NC(N)=NCCC[C@H]1NC(=O)[C@@H](CCC(=O)O)NC(=O)[C@@H](CC(=O)O)NC(=O)[C@@H](CCC(=O)O)NC(=O)[C@H](Cc2c[nH]c3ccccc23)NC1=O` (cyclo(W[dE][dD][dE][dR])) has a TGI [1] greater than 7.5 µM, a TGI [2] greater than 7.5 µM and a TGI [3] greater than 7.5 µM. The TGI [4] was greater than 7.5 µM, the TGI [5] was greater than 7.5 µM and the TGI [6] was greater than 7.5 µM. For the same compound, the TGI [7] was greater than 7.5 µM, the TGI [8] was greater than 7.5 µM and the TGI [9] was greater than 7.5 µM. For the same compound, the TGI [10] was greater than 7.5 µM, the TGI [11] was greater than 7.5 µM and the TGI [12] was greater than 7.5 µM. It also gave a TGI [13] greater than 7.5 µM, a TGI [14] greater than 7.5 µM and a TGI [15] greater than 7.5 µM. It also gave a TGI [16] greater than 7.5 µM, a TGI [17] greater than 7.5 µM and a TGI [18] greater than 7.5 µM. It also gave a TGI [19] greater than 7.5 µM, a TGI [20] greater than 7.5 µM and a TGI [21] greater than 7.5 µM. The TGI [22] was greater than 7.5 µM, the TGI [23] was greater than 7.5 µM and the TGI [24] was greater than 7.5 µM. For the same compound, the TGI [25] was greater than 7.5 µM, the TGI [26] was greater than 7.5 µM and the TGI [27] was greater than 7.5 µM. It also gave a TGI [28] greater than 7.5 µM, a TGI [29] greater than 7.5 µM and a TGI [30] greater than 7.5 µM. For the same compound, the TGI [31] was greater than 7.5 µM, the TGI [32] was greater than 7.5 µM and the TGI [33] was greater than 7.5 µM. The TGI [34] was greater than 7.5 µM, the TGI [35] was 0.507 µM and the TGI [36] was greater than 7.5 µM. For the same compound, the TGI [37] was greater than 7.5 µM, the TGI [38] was greater than 7.5 µM and the TGI [39] was greater than 7.5 µM. For the same compound, the TGI [40] was greater than 7.5 µM, the TGI [41] was greater than 7.5 µM and the TGI [42] was greater than 7.5 µM. The TGI [43] was greater than 7.5 µM, the TGI [44] was greater than 7.5 µM and the TGI [45] was greater than 7.5 µM. The TGI [46] was greater than 7.5 µM, the TGI [47] was greater than 7.5 µM and the TGI [48] was greater than 7.5 µM. For the same compound, the TGI [49] was greater than 7.5 µM, the TGI [50] was greater than 7.5 µM and the TGI [51] was greater than 7.5 µM. It also gave a TGI [52] greater than 7.5 µM, a TGI [53] greater than 7.5 µM and a TGI [54] greater than 7.5 µM. The TGI [55] was greater than 7.5 µM.
`COc1ccc(C(C)c2cc3c(cc2O)OCO3)cc1` (stereo unspecified) showed a TGI [1] of 79.1 µM, a TGI [2] of 27.4 µM and a TGI [56] of 33 µM. The TGI [3] was 36.1 µM, the TGI [4] was 28.9 µM and the TGI [5] was 36.5 µM. It also gave a TGI [6] of 32.3 µM, a TGI [7] of 23.2 µM and a TGI [8] of 28.8 µM. The TGI [9] was 30.1 µM, the TGI [10] was 45.2 µM and the TGI [11] was 29.6 µM. For the same compound, the TGI [13] was 24.4 µM, the TGI [14] was 33.3 µM and the TGI [15] was 29.4 µM. For the same compound, the TGI [16] was 28.7 µM, the TGI [17] was 19.3 µM and the TGI [18] was 34.5 µM. The TGI [19] was 38.8 µM, the TGI [20] was 53.2 µM and the TGI [21] was 28.1 µM. For the same compound, the TGI [22] was 35.3 µM, the TGI [23] was 66.6 µM and the TGI [24] was 29.8 µM. The TGI [25] was 26 µM, the TGI [26] was 32.5 µM and the TGI [27] was 27.2 µM. It also gave a TGI [28] of 28.3 µM, a TGI [29] of 83.3 µM and a TGI [30] of 74.4 µM. For the same compound, the TGI [31] was 42.6 µM, the TGI [32] was 35.9 µM and the TGI [33] was 33.7 µM. It also gave a TGI [34] of 49.6 µM, a TGI [35] of 28.9 µM and a TGI [36] of 31.7 µM. For the same compound, the TGI [37] was 28.6 µM, the TGI [38] was greater than 100 µM and the TGI [39] was 28.5 µM. The TGI [57] was 60.2 µM, the TGI [40] was 31.1 µM and the TGI [41] was 26.5 µM. It also gave a TGI [42] of 13.6 µM, a TGI [43] of 37 µM and a TGI [44] of 28 µM. The TGI [45] was 47.6 µM, the TGI [46] was 31.9 µM and the TGI [47] was 31 µM. For the same compound, the TGI [48] was 32.7 µM, the TGI [49] was 28.6 µM and the TGI [50] was 32.2 µM. The TGI [51] was 32.5 µM, the TGI [52] was 32.2 µM and the TGI [53] was 30.8 µM. For the same compound, the TGI [54] was 36.5 µM and the TGI [55] was 18 µM.
